Literature values as cited in patent US20100160295A1, “TREATMENT OF RESTLESS LEG SYNDROME AND SLEEP DISORDERS” (SYNOSIA THERAPEUTICS, priority 2008, published 2010).

System: RLS patients
Conditions: RLS treatment, cited from earlier work

SMILES | major side effects reported | augmentation (worsening of symptoms following initiation of therapy), patients affected (estimated)
CCCN[C@H]1CCc2nc(N)sc2C1 [Pramipexole] | insomnia, dizziness, constipation, asthenia and hallucinations | –
N[C@@H](Cc1ccc(O)c(O)c1)C(=O)O [levidopa] | – | 50-85%
